Drawing on US20220259202A1, “1-(4-(AMINOMETHYL)BENZYL)-2-BUTYL-2H-PYRAZOLO[3,4-C]QUINOLIN-4-AMINE DERIVATIVES AND RELATED COMPOUNDS AS TOLL-LIKE RECEPTOR (TLR) 7/8 AGONISTS, AS WELL AS ANTIBODY DRUG CONJUGATES THEREOF FOR USE IN CANCER THERAPY AND DIAGNOSIS” (SUTRO BIOPHARMA, INC., priority 2019, published 2022), this text covers EC50 for two molecules.

The experiment concerns the target T1, mouse TLR8 (Mus musculus, UniProt P58682).
T1 construct: host or cells: HEK293
T1 sequence (P58682 24-1032): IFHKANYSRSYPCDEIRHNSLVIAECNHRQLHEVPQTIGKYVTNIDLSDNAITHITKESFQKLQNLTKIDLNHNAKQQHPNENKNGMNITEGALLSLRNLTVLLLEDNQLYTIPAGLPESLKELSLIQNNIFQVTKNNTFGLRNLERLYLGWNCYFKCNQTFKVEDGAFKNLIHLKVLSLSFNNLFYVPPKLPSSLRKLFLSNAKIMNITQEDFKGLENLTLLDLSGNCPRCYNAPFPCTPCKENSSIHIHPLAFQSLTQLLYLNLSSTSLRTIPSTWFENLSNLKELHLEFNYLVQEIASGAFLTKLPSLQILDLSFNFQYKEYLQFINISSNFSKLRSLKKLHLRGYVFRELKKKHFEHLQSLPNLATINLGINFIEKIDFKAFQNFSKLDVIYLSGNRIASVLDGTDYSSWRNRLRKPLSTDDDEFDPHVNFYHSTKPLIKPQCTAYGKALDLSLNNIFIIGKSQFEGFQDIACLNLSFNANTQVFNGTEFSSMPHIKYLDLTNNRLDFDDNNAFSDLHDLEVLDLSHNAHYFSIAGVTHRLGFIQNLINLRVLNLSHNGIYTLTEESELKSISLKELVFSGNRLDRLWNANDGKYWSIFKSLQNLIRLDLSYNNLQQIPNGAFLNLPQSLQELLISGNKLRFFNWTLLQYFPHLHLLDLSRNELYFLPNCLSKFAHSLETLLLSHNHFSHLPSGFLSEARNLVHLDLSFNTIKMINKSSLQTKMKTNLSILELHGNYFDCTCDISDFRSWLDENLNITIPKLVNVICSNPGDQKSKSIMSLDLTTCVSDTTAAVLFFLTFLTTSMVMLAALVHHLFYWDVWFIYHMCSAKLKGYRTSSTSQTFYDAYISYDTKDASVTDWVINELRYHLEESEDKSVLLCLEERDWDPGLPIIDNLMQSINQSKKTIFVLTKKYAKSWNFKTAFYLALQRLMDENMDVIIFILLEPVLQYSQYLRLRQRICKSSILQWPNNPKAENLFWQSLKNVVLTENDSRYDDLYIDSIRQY
Nature of the experiment: HEK293 SEAP reporter assay, other TLRs (Biological Example 3). To be noted: 16 hrs, up to 1 μM. Format: cell-based. On the technique in general: A reporter such as luciferase makes a cellular process visible.

As usually defined, the EC50 is the concentration giving half of the maximal effect. Read a low EC50 as a more potent agent. The molecule `CCCCn1nc2c(N)nc3ccccc3c2c1Cc1ccc(CN)cc1` [Compound 1, 1-(4-(aminomethyl)benzyl)-2-butyl-2H-pyrazolo[3,4-c]quinolin-4-amine] registered an EC50 of over 1 µM.
In the case of `CCCCc1nc2c(N)nc3ccccc3c2n1Cc1ccc(CN)cc1` [Compound A, reference compound] it was over 1 µM.
